From PMC8456958, “Selective Bacterial Targeting and Infection‐Triggered Release of Antibiotic Colistin Conjugates” (Angewandte Chemie (International Ed. in English), 2021)

Columns and labels:
[1] = test system: human neutrophil granulocytes (PMN); test: Activation of human neutrophil granulocytes (CD66b, flow cytometry); assay type: cell-based; conditions: 0.1 μM fMLP, 1 h at 37 °C with shaking, FITC-labeled anti CD66b antibody; three independent experiments
Protocol: HPLC-MS measurements were carried out in triplicate. Data from MRM measurements were analyzed with Skyline (vers. 18.3, MacCoss Laboratory, University of Washington).
Isolation of Neutrophil Granulocytes from human blood
The MACSxpress Neutrophil Isolation Kit, human from Miltenyi Biotec (Bergisch-Gladbach, Germany) was employed. Fresh venous EDTA blood was processed within 1 h. 65 mg of the MACSxpress whole blood isolation cocktail (lyophilized powder) were mixed with 1 ml of buffer A (from the kit). Then 1 ml of buffer B (from the kit) was added, and the well-mixed cocktail was added to 4 ml of peripheral whole blood in a 15 ml tube. The mixture was gently inverted 3 times and mixed on a tube rotator at 50 rpm for 5 min at rt. The tube was placed, without cap, for 20 min into a strong magnetic field (neodymium magnets). The suspension containing the PMN was collected into a fresh 15 ml tube by careful pipetting. […]
All steps were carried out with cooled media (4 °C) and the vials were kept on ice. Freshly isolated neutrophil granulocytes in RPMI 1640 were counted, followed by centrifugation at 200 x g for 10 min at 4 °C. […]
50 µl of the diluted detection antibody (diluted with Reagent Diluent) with a final concentration of 250 ng/ml were added and incubated for 1.5 h at 37 °C. […] The absorbance was measured at 450 nm […]

[2] = test system: neutrophil granulocytes (PMN); test: Release of neutrophil elastase from neutrophil granulocytes (ELISA); assay type: cell-based, human; conditions: stimulation with 0.1 μM fMLP
Protocol: Figure 5 Cellular proof of concept for triggered antibiotic release from 6. a) Release of neutrophil elastase (NE) from neutrophil granulocytes. PMN were isolated and suspended in RPMI 1640. For activation, 0.1 μM fMLP was added. The samples were incubated for 1 h at 37 °C, centrifuged to remove cells, and the NE concentration was determined in the supernatant by ELISA. Values normalized to 1×10^6 cells mL^−1. Data are presented as the mean of 4 separate experiments. *p<0.03 compared to unactivated. b) Activity of NE after co‐cultivation of PMN with E. coli K12 in presence of 1 or 6. 5×10^5 cells mL^−1 of PMN were co‐cultivated with 8×10^6 cells mL^−1 of E. coli K12 (ratio of bacteria : PMN 16:1) for 1 h at 37 °C in RPMI 1640/HEPES‐NaCl 1:1. Data are presented as the mean of two separate experiments. c) Release of colistin from 6. […] After 1 h colistin concentrations were determined by HPLC–MS. […]
50 µl of the diluted detection antibody (diluted with Reagent Diluent) with a final concentration of 250 ng/ml were added and incubated for 1.5 h at 37 °C. […] The absorbance was measured at 450 nm together with a correction wavelength of 570 nm, the value of which was subtracted.
Calculation of results: All samples and standards were measured in duplicate. […]

N-Formyl-Met-Leu-Phe [fMLP, formyl‐methionyl‐leucyl‐phenylalanine]
increase of the activation state marker CD66b [1]: 2.5 fold | amount of elastase released by neutrophil granulocytes ([2]; RPMI 1640, 1 h, 37 °C, supernatant, ELISA, normalized to 1×10^6 cells mL^−1, mean of 4 experiments, basal 39): 84 ng/mL | amount of elastase released, as activity ([2]; converted from ELISA amount, basal 2.5): 5.5 mU mL^−1
